Measured values taken from ChEMBL document CHEMBL4024707, “Using gene expression database to uncover biology functions of 1,4-disubstituted 1,2,3-triazole analogues synthesized via a copper (I)-catalyzed reaction” (Eur J Med Chem, 2017).

Columns and labels:
Hep 3B2 [1] = experiment: Down regulation of NVL expression in human Hep3B cells at 1 uM after 6 to 24 hrs by L1000 expression profiling method relative to control; assay type: functional
Hep 3B2 [2] = experiment: Down regulation of TGFB3 expression in human Hep3B cells at 1 uM after 6 to 24 hrs by L1000 expression profiling method relative to control; assay type: functional
Hep 3B2 [3] = experiment: Up regulation of RPS6KA1 expression in human Hep3B cells at 1 uM after 6 to 24 hrs by L1000 expression profiling method relative to control; assay type: functional
Hep 3B2 [4] = experiment: Down regulation of PTPRK expression in human Hep3B cells at 1 uM after 6 to 24 hrs by L1000 expression profiling method relative to control; assay type: functional
[5] = target: Glycogen synthase kinase-3 alpha (Homo sapiens) (UniProt P49840); experiment: Inhibition of GSK3alpha phosphorylation at Ser21 in human Hep3B cells assessed as ratio of phosphorylated […] to beta-actin level at 10 uM after 48 hrs by Western blot analysis; assay type: cell-based
Sequence of Glycogen synthase kinase-3 alpha (Homo sapiens) (P49840 2-483 limits assumed): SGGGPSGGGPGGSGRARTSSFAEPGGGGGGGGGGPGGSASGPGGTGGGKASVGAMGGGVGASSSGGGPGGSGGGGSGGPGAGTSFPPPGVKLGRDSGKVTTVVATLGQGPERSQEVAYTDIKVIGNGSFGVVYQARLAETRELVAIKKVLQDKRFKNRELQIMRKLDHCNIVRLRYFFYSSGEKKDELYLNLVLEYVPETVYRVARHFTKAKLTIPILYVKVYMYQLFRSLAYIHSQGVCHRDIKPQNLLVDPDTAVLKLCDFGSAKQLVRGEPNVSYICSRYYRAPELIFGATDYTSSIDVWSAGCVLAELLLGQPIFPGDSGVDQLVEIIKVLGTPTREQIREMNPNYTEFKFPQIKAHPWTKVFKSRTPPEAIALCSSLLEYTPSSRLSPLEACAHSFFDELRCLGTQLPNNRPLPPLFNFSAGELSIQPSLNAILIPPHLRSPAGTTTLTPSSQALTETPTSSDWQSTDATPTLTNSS

Hep 3B2 [6] = experiment: Up regulation of […] expression in human Hep3B cells at 1 uM after 6 to 24 hrs by L1000 expression profiling method relative to control; assay type: functional
Hep 3B2 [7] = experiment: Down regulation of PLEKHM1 expression in human Hep3B cells at 1 uM after 6 to 24 hrs by L1000 expression profiling method relative to control; assay type: functional
Hep 3B2 [8] = experiment: Up regulation of ARFIP2 expression in human Hep3B cells at 1 uM after 6 to 24 hrs by L1000 expression profiling method relative to control; assay type: functional
Hep 3B2 [9] = experiment: Down regulation of ARNT2 expression in human Hep3B cells at 1 uM after 6 to 24 hrs by L1000 expression profiling method relative to control; assay type: functional
Hep 3B2 [10] = experiment: Down regulation of UBE2J1 expression in human Hep3B cells at 1 uM after 6 to 24 hrs by L1000 expression profiling method relative to control; assay type: functional
Hep 3B2 [11] = experiment: Down regulation of PTPRC expression in human Hep3B cells at 1 uM after 6 to 24 hrs by L1000 expression profiling method relative to control; assay type: functional
Hep 3B2 [12] = experiment: Up regulation of CDCA4 expression in human Hep3B cells at 1 uM after 6 to 24 hrs by L1000 expression profiling method relative to control; assay type: functional
Hep 3B2 [13] = experiment: Down regulation of MMP2 expression in human Hep3B cells at 1 uM after 6 to 24 hrs by L1000 expression profiling method relative to control; assay type: functional
Hep 3B2 [14] = experiment: Down regulation of DNMT3A expression in human Hep3B cells at 1 uM after 6 to 24 hrs by L1000 expression profiling method relative to control; assay type: functional
Hep 3B2 [15] = experiment: Down regulation of ZNF586 expression in human Hep3B cells at 1 uM after 6 to 24 hrs by L1000 expression profiling method relative to control; assay type: functional
Hep 3B2 [16] = experiment: Down regulation of FUT1 expression in human Hep3B cells at 1 uM after 6 to 24 hrs by L1000 expression profiling method relative to control; assay type: functional
Hep 3B2 [17] = experiment: Down regulation of GNA15 expression in human Hep3B cells at 1 uM after 6 to 24 hrs by L1000 expression profiling method relative to control; assay type: functional
Hep 3B2 [18] = experiment: Down regulation of PPP1R13B expression in human Hep3B cells at 1 uM after 6 to 24 hrs by L1000 expression profiling method relative to control; assay type: functional
Hep 3B2 [19] = experiment: Growth inhibition of human Hep3B cells after 48 hrs by MTT assay; assay type: functional, cell-based
Hep 3B2 [20] = experiment: Down regulation of ORC1 expression in human Hep3B cells at 1 uM after 6 to 24 hrs by L1000 expression profiling method relative to control; assay type: functional
Hep 3B2 [21] = experiment: Cell cycle arrest in human Hep3B cells assessed as accumulation at G0/G1 phase at 10 uM after 48 hrs in presence of curcumin by propidium iodide staining based flow cytometry (reference value: […] +/- […]%); assay type: functional
Hep 3B2 [22] = experiment: Down regulation of PAPD7 expression in human Hep3B cells at 1 uM after 6 to 24 hrs by L1000 expression profiling method relative to control; assay type: functional
Hep 3B2 [23] = experiment: Growth inhibition of human Hep3B cells at 2.5 uM after 48 hrs in presence of curcumin by MTT assay; assay type: functional
Hep 3B2 [24] = experiment: Cytotoxicity against human Hep3B cells at 20 uM after 24 hrs by MTT assay relative to control; assay type: functional
Hep 3B2 [25] = experiment: Cell cycle arrest in human Hep3B cells assessed as accumulation at G0/G1 phase at 10 uM after 48 hrs in absence of curcumin by propidium iodide staining based flow cytometry (reference value: […] +/- […]%); assay type: functional
Hep 3B2 [26] = experiment: Cell cycle arrest in human Hep3B cells assessed as accumulation at G0/G1 phase at 5 uM after 24 hrs by propidium iodide staining based flow cytometry (reference value: 36.3 to 39.0%); assay type: functional
Hep 3B2 [27] = experiment: Cell cycle arrest in human Hep3B cells assessed as accumulation at G0/G1 phase at 40 uM after 72 hrs by propidium iodide staining based flow cytometry (reference value: 41.6 to 46.2%); assay type: functional
Hep 3B2 [28] = experiment: Cell cycle arrest in human Hep3B cells assessed as accumulation at G2/M phase at 40 uM after 72 hrs by propidium iodide staining based flow cytometry (reference value: 28.7 to 32.3%); assay type: functional
Hep 3B2 [29] = experiment: Cell cycle arrest in human Hep3B cells assessed as accumulation at S phase at 2.5 uM after 48 hrs by propidium iodide staining based flow cytometry (reference value: 20.8 to 24%); assay type: functional
Hep 3B2 [30] = experiment: Cell cycle arrest in human Hep3B cells assessed as accumulation at S phase at 40 uM after 72 hrs by propidium iodide staining based flow cytometry (reference value: 16.4 to 21.1%); assay type: functional
Hep 3B2 [31] = experiment: Cell cycle arrest in human Hep3B cells assessed as accumulation at G0/G1 phase at 5 uM after 48 hrs by propidium iodide staining based flow cytometry (reference value: 39.7 to 40.4%); assay type: functional
Hep 3B2 [32] = experiment: Cell cycle arrest in human Hep3B cells assessed as accumulation at G0/G1 phase at 40 uM after 24 hrs by propidium iodide staining based flow cytometry (reference value: 36.3 to 39.0%); assay type: functional
Hep 3B2 [33] = experiment: Cell cycle arrest in human Hep3B cells assessed as accumulation at sub-G1 phase at 40 uM after 72 hrs by propidium iodide staining based flow cytometry (reference value: 0.6 to 3.3%); assay type: functional
Hep 3B2 [34] = experiment: Cell cycle arrest in human Hep3B cells assessed as accumulation at G2/M phase at 40 uM after 48 hrs by propidium iodide staining based flow cytometry (reference value: 34.8 to […]%); assay type: functional
Hep 3B2 [35] = experiment: Induction of autophagy in human Hep3B cells at 40 uM after 72 hrs by acridine orange staining based flow cytometry (reference value: 1.1 to 4%); assay type: functional
Hep 3B2 [36] = experiment: Induction of autophagy in human Hep3B cells at 40 uM after 48 hrs by acridine orange staining based flow cytometry (reference value: 0.9 to 3%); assay type: functional
Hep 3B2 [37] = experiment: Cell cycle arrest in human Hep3B cells assessed as accumulation at S phase at 40 uM after 48 hrs by propidium iodide staining based flow cytometry (reference value: 20.8 to 24%); assay type: functional

SMILES: O=C1COc2ccccc2N1Cc1cn(CCC2OCCO2)nn1
- log2FC (Hep 3B2 [1]): -3.779
- log2FC (Hep 3B2 [2]): -3.4573
- log2FC (Hep 3B2 [3]): 3.2908
- log2FC (Hep 3B2 [4]): -3.3276
- Ratio [5]: 0.9
- log2FC (Hep 3B2 [6]): 3.5557
- log2FC (Hep 3B2 [7]): -3.9025
- log2FC (Hep 3B2 [8]): 3.4502
- log2FC (Hep 3B2 [9]): -5.0177
- log2FC (Hep 3B2 [10]): -3.3451
- log2FC (Hep 3B2 [11]): -3.9957
- log2FC (Hep 3B2 [12]): 3.2705
- log2FC (Hep 3B2 [13]): -4.0779
- log2FC (Hep 3B2 [14]): -4.2565
- log2FC (Hep 3B2 [15]): -4.0824
- log2FC (Hep 3B2 [16]): -3.2524
- log2FC (Hep 3B2 [17]): -4.0259
- log2FC (Hep 3B2 [18]): -3.1647
- growth inhibition (GI) (Hep 3B2 [19]): Dose-dependent effect
- log2FC (Hep 3B2 [20]): -3.3272
- Activity (Hep 3B2 [21]): 24.8%
- log2FC (Hep 3B2 [22]): -3.2796
- CI (Hep 3B2 [23]): 0.96
- Activity (Hep 3B2 [24]): 24.1%
- Activity (Hep 3B2 [25]): 11.6%

SMILES: COc1ccc(CNC(=O)Nc2ncc([N+](=O)[O-])s2)cc1
- Activity (Hep 3B2 [26]): 32.5%
- Activity (Hep 3B2 [27]): 38.5%
- Activity (Hep 3B2 [28]): 42.8%
- Activity (Hep 3B2 [29]): 23.2%
- Activity (Hep 3B2 [30]): 13.5%
- Activity (Hep 3B2 [31]): 38.5%
- Activity (Hep 3B2 [32]): 35%
- Activity (Hep 3B2 [33]): 5.4%
- Activity (Hep 3B2 [34]): 41.6%
- Activity (Hep 3B2 [35]): 23.3%
- Activity (Hep 3B2 [36]): 7.7%
- Activity (Hep 3B2 [37]): 14.9%
